PMC12169669, “Regio- and Stereoselective Synthesis of Nitro-fatty Acids as NRF2 Pathway Activators Working under Ambient or Hypoxic Conditions” (Journal of Medicinal Chemistry, 2025)

Columns and labels:
[1] = system: NRF2; test: NRF2 stabilization in bone marrow cells (Western blot, whole-cell lysates); format: cell-based, mouse; conditions: BMCs, 2 μM, 1 h
Source text: (§1) Primary bone marrow cells (BMCs) were isolated from 8–12-week-old male C57BL/6 mice (25–30 g, AnLab, Czech Republic). Mice were housed under standard conditions. BMCs were isolated as follows: The day before isolation, phosphate-buffered saline (PBS), ACK Lysis Buffer (A10492-01, Thermo Fisher Scientific), and Iscove’s Modified Dulbecco’s Medium (IMDM) (12440-053, Thermo Fisher Scientific) were placed in a hypoxic chamber (InvivO2 400, Baker Ruskinn, UK) with adjustable oxygen control to equilibrate for the target oxygen concentrations. On the day of the experiment, animals were euthanized using ketamine/xylazine, and bilateral femurs were extracted. BMCs were flushed with hypoxic (1% O2 unless stated otherwise) PBS supplemented with 2% fetal bovine serum (FBS; low endotoxin, FB-1101/500, Biosera, France). After hemolysis at room temperature using hypoxic ACK Lysis Buffer, nucleated BMCs were washed with hypoxic PBS + 2% FBS and counted using a TC20 automated cell counter (Bio-Rad). Cells were kept under hypoxic conditions prior to treatment. The medium for BMC culture, consisting of IMDM with 2% FBS and 1% penicillin/streptomycin (LM-A4118/100, Biosera, France), was supplemented with 10 ng/mL mouse IL-3, 10 ng/mL mouse IL-6, and 50 ng/mL mouse stem cell factor - SCF (213-13, 216-16, and 250-03, respectively; all from PeproTech). Cells were cultured at 37 °C in a humidified atmosphere containing 5% CO2 and the specified oxygen concentrations (21%, 4%, or 1%).
(§2) Briefly, 1.5 × 10^6 BMCs were placed in 0.2 mL of complete medium in 1.5 mL microtubes and incubated with 2 μM NO2FAs or the control (medium only) for 1 (NRF2), 4 (heme oxygenase-1, HO-1), or 7 (glutamate-cysteine ligase modifier subunit, GCLM) hours at the specified oxygen levels (21%, 4%, or 1%). Cells were then spun down and washed with PBS (from this step onward, cells were processed under atmospheric conditions). Next, cells were lysed in 60 μL RIPA buffer (89901, Thermo Fisher Scientific) containing protease and phosphatase inhibitors cocktail (78442, Thermo Fisher Scientific). Cell lysates were sonicated and centrifuged at 15,000g for 3 min at 4 °C, and 15 μL of lane marker (3900, Thermo Fisher Scientific) was added to the supernatants. Samples were boiled for 3 min at 95 °C. Equal volumes of lysates (15–45 μL/well) were loaded onto 7–15% SDS-polyacrylamide gels. Proteins were then transferred onto PVDF membranes (IPVH85R, EMD Millipore Corp.) and blocked with 5% nonfat dry milk in TBST. Membranes were incubated overnight at 4 °C with the following primary antibodies: anti-β-actin (1:1000; #3700, Cell Signaling Technology), antivinculin (1:10,000; #SAV9264, Sigma-Aldrich), anti-NRF2 (1:500; A308758, Lot 38410, Antibodies.com, UK), anti-HO-1 (1:1000; #43966, Cell Signaling Technology), antihistone H3 (1:2000; #4499, Cell Signaling Technology), or anti-GCLM (1:100; sc-55586, Santa Cruz Biotechnology). This was followed by incubation with corresponding HRP-linked secondary antibodies (antimouse IgG, #7076, 1:1000–5000; or antirabbit IgG, #7074, 1:1000–2000; both from Cell Signaling Technology) for 1 h at room temperature. Protein bands were visualized using an enhanced chemiluminescent substrate (SuperSignal 34577/34095, Thermo Fisher Scientific). The optical densities of detected proteins were measured using ImageJ v1.52 (NIH).
2 Stabilization of NRF2 by tested NO2FA derivatives. NO 2 FA derivatives stabilize NRF2 in mouse bone marrow cells (BMCs). Nucleated BMCs were cultured under varying oxygen conditions (21%, 4%, and 1%) and treated for 1 h with 2 μM of the tested NO 2 FAs, followed by analysis of NRF2 expression in whole-cell lysates. Results are shown as the fold change relative to control cells across different oxygen culture conditions (A–C). Data are expressed as mean ± SD from 3–4 independent experiments (n = 3–4). Statistical analysis was performed using one-way ANOVA with Dunnett’s multiple comparisons test (* p < 0.05).

[2] = system: Gclm; test: GCLM protein level in BMCs (Western blot); format: cell-based, mouse; conditions: 2 μM, 7 h
Source text: as §1, §2
4 Expression of NRF2-target proteins HO-1 and GCLM. NO 2 FA derivatives upregulate the expression of NRF2-target proteins in mouse BMCs. BMCs were cultured under 21% or 1% oxygen conditions and treated with 2 μM of the tested NO 2 FAs for 4 h (A, B) or 7 h (C, D). HO-1 (A, B) and GCLM (C, D) expression in whole-cell lysates was subsequently analyzed. Results are presented as the fold change relative to control cells across different oxygen culture conditions. Data are expressed as mean ± SD from 3–5 independent experiments (n = 3–5). […]

Compound | NRF2 expression (stabilization), fold change relative to control ([1]; 1% oxygen) | GCLM protein level, fold change relative to control ([2]; 1% oxygen) | GCLM protein level, fold change relative to control ([2]; 21% oxygen) | NRF2 expression (stabilization), fold change relative to control ([1]; 4% oxygen) | NRF2 expression (stabilization), fold change relative to control ([1]; 21% oxygen)
CCCCCCCC/C=C(\CCCCCCCC(=O)O)[N+](=O)[O-] [9-NO2OA, (9E)-9-Nitro-oleic Acid] | significantly increased | nearly the same increase | nearly the same increase | – | –
CCCCCC/C=C/C=C(\CCCCCCCC(=O)O)[N+](=O)[O-] [9-NO2cLA, (9E,11E)-9-Nitro Conjugated Linoleic Acid] | nonsignificant increase | – | – | nonsignificant increase | –
CCCCC/C=C\C/C(=C\CCCCCCCC(=O)O)[N+](=O)[O-] [10-NO2LA, (9E,12Z)-10-Nitro Linoleic Acid] | – | – | only significant at 21% oxygen | significantly increased | –
CCCCCCCC/C(=C\CCCCCCCC(=O)O)[N+](=O)[O-] [10-NO2OA, (9E)-10-Nitro-oleic Acid] | significantly increased | nearly the same increase | nearly the same increase | – | –
CCCCCCCCC(CCCCCCCCC(=O)O)[N+](=O)[O-] (stereo not drawn) [10-NO2SA, 10-Nitro Stearic acid] | no effect | no significant effects | no significant effects | no effect | no effect
